pIC50: −log10 of the molar value. Read-outs that look alike come from different tables or passages of the source.
Legend:
[1] = biological target: Human factor Xa (Homo sapiens, UniProt P00742)
[2] = biological target: T1, TF-VIIa (Homo sapiens, UniProt P08709); assay: TF-VIIa Assay; assay type: biochemical
T1 construct: 2nM recombinant human factor VIIa; purchased American Diagnostica, Greenwich CT; host or cells: soluble TF made in house in E. coli

[3] = read-out: IC50 or % Inhibition TF-VIIa (30 µM); cells given as a plain number (IC50)
[4] = cells given as a plain number (IC50); read-out: IC50 or % Inhibition TF-VIIa (30 µM)

Chain of Human factor Xa (P00742 235-488 limits assumed): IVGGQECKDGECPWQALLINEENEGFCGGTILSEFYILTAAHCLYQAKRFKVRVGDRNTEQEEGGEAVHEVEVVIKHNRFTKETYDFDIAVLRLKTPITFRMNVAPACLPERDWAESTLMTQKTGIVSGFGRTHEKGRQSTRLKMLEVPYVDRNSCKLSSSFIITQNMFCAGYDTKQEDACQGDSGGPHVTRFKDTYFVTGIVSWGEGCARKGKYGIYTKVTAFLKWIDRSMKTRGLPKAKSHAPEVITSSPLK
Chain of Human factor Xa (P00742 41-179 limits assumed): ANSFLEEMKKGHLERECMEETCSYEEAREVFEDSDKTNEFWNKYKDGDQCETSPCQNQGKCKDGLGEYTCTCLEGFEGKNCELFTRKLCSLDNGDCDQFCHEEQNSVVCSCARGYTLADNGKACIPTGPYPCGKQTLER
T1 sequence (P08709 213-466 limits assumed): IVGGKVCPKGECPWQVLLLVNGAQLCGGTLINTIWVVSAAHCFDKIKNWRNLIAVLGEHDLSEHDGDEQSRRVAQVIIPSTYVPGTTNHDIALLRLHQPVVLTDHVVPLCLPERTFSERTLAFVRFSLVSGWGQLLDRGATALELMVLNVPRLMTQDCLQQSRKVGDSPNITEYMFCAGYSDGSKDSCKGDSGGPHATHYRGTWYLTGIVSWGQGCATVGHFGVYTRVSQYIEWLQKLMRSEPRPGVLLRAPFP
T1 sequence (P08709 61-212 limits assumed): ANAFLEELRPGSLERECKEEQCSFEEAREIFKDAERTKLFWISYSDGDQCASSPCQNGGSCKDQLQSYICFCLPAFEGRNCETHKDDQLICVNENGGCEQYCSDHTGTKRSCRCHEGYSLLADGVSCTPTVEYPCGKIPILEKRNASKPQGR
T1 sequence (P13726 33-251 partner limits assumed): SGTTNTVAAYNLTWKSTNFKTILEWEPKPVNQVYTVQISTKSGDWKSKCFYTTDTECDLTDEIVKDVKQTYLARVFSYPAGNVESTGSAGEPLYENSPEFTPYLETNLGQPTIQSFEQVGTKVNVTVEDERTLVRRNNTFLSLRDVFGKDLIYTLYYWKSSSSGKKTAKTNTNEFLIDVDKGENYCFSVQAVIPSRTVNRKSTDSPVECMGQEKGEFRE

Compound | IC50 or % Inhibition Factor Xa (30 µM) [1] [%] | pIC50 [2, 3] | pIC50 [2, 4] | IC50 or % Inhibition TF-VIIa (30 µM) [2] [%]
N=C(N)c1ccc(CNC(=O)Cn2c(-c3ccccc3)c(Cl)nc(NCC(c3ccccc3)c3ccccc3)c2=O)cc1 [1507-09] | 13 | 4.65 | – | –
N=C(N)c1ccc(CNC(=O)Cn2c(-c3ccccc3)c(Cl)nc(NC3CCCc4ccccc43)c2=O)cc1 (stereo not drawn) [1507-16] | 18 | 5.24 | – | –
N=C(N)c1ccc(CNC(=O)Cn2c(-c3ccccc3)c(Cl)nc(NCCC3=CCCCC3)c2=O)cc1 [1507-17] | 16 | 4.56 | – | –
N=C(N)c1ccc(CNC(=O)Cn2c(-c3ccccc3)c(Cl)nc(NCCCN3CCCC3=O)c2=O)cc1 [1507-19] | 4 | 4.89 | – | –
N=C(N)c1ccc(CNC(=O)Cn2c(-c3ccccc3)c(Cl)nc(NC3CCC3)c2=O)cc1 [1507-21] | 23 | – | 6.40 | –
N=C(N)c1ccc(CNC(=O)Cn2c(-c3ccccc3)c(Cl)nc(NCc3ccccn3)c2=O)cc1 [1507-24] | 15 | – | – | 0
N=C(N)c1ccc(CNC(=O)Cn2c(-c3ccccc3)c(Cl)nc(NC(c3ccccc3)c3ccccc3)c2=O)cc1 [1507-35] | 28 | 4.70 | – | –
N=C(N)c1ccc(CNC(=O)Cn2c(-c3ccccc3)c(Cl)nc(NCc3cc(C(F)(F)F)cc(C(F)(F)F)c3)c2=O)cc1 [1507-40] | 11 | 5.24 | – | –
N=C(N)c1ccc(CNC(=O)Cn2c(-c3ccccc3)c(Cl)nc(NCC(F)(F)F)c2=O)cc1 [1507-41] | 17 | – | – | 48
N=C(N)c1ccc(CNC(=O)Cn2c(-c3ccccc3)c(Cl)nc(NCCCCc3ccccc3)c2=O)cc1 [1507-43] | 21 | – | 5.39 | –
N=C(N)c1ccc(CNC(=O)Cn2c(-c3ccccc3)c(Cl)nc(NCCc3ccc(Cl)c(Cl)c3)c2=O)cc1 [1507-44] | 9 | 5.22 | – | –
N=C(N)c1ccc(CNC(=O)Cn2c(-c3ccccc3)c(Cl)nc(NCc3ccc(Cl)cc3)c2=O)cc1 [1507-46] | 8 | – | 5.37 | –
CN(C)CCCNc1nc(Cl)c(-c2ccccc2)n(CC(=O)NCc2ccc(C(=N)N)cc2)c1=O [1507-47] | 19 | – | 4.75 | –
N=C(N)c1ccc(CNC(=O)Cn2c(-c3ccccc3)c(Cl)nc(NCC3COc4ccccc4O3)c2=O)cc1 (stereo not drawn) [1512-01] | 4 | 4.74 | – | –
COc1cccc(CNc2nc(Cl)c(-c3ccccc3)n(CC(=O)NCc3ccc(C(=N)N)cc3)c2=O)c1OC [1512-02] | 3 | 4.72 | – | –
COc1ccc(CCNc2nc(Cl)c(-c3ccccc3)n(CC(=O)NCc3ccc(C(=N)N)cc3)c2=O)cc1OC [1512-05] | 10 | 4.78 | – | –
N=C(N)c1ccc(CNC(=O)Cn2c(-c3ccccc3)c(Cl)nc(NCCCc3ccccc3)c2=O)cc1 [1512-06] | 4 | – | 4.90 | –
CCOc1ccccc1CNc1nc(Cl)c(-c2ccccc2)n(CC(=O)NCc2ccc(C(=N)N)cc2)c1=O [1512-11] | 5 | 4.52 | – | –
CCCCC(CC)Nc1nc(Cl)c(-c2ccccc2)n(CC(=O)NCc2ccc(C(=N)N)cc2)c1=O (stereo not drawn) [1512-12] | 5 | 4.95 | – | –
CN(C)CCNc1nc(Cl)c(-c2ccccc2)n(CC(=O)NCc2ccc(C(=N)N)cc2)c1=O [1512-15] | 6 | – | 4.68 | –
CC1CCCC(Nc2nc(Cl)c(-c3ccccc3)n(CC(=O)NCc3ccc(C(=N)N)cc3)c2=O)C1C (stereo not drawn) [1512-23] | 6 | 4.84 | – | –
N=C(N)c1ccc(CNC(=O)Cn2c(-c3ccccc3)c(Cl)nc(NCc3ccc(C(F)(F)F)cc3F)c2=O)cc1 [1512-26] | 5 | 4.57 | – | –
N=C(N)c1ccc(CNC(=O)Cn2c(-c3ccccc3)c(Cl)nc(NCc3cc(C(F)(F)F)ccc3F)c2=O)cc1 [1512-27] | 3 | 4.78 | – | –
N=C(N)c1ccc(CNC(=O)Cn2c(-c3ccccc3)c(Cl)nc(NCc3cc(F)cc(C(F)(F)F)c3)c2=O)cc1 [1512-29] | 4 | – | – | 47
Cc1cccc(Cl)c1CNc1nc(Cl)c(-c2ccccc2)n(CC(=O)NCc2ccc(C(=N)N)cc2)c1=O [1512-31] | 14 | – | – | 43
N=C(N)c1ccc(CNC(=O)Cn2c(-c3ccccc3)c(Cl)nc(NCc3cc(F)c(F)c(F)c3)c2=O)cc1 [1512-32] | 5 | 4.66 | – | –
N=C(N)c1ccc(CNC(=O)Cn2c(-c3ccccc3)c(Cl)nc(NCc3cc(Cl)ccc3Cl)c2=O)cc1 [1512-35] | 4 | 4.65 | – | –

Compound | IC50 or % Inhibition Factor Xa (30 µM) [1] [%] | pIC50 [2, 3] | pIC50 [2, 4] | IC50 or % Inhibition TF-VIIa (30 µM) [2] [%]
N=C(N)c1ccc(CNC(=O)Cn2c(-c3ccccc3)c(Cl)nc(NCc3cc(F)ccc3F)c2=O)cc1 [1512-36] | 9 | – | 5.42 | –
N=C(N)c1ccc(CNC(=O)Cn2c(-c3ccccc3)c(Cl)nc(NCc3cc(F)cc(F)c3)c2=O)cc1 [1512-39] | 4 | – | 5.22 | –
N=C(N)c1ccc(CNC(=O)Cn2c(-c3ccccc3)c(Cl)nc(NCc3cccc(OC(F)(F)F)c3)c2=O)cc1 [1512-40] | 3 | – | – | 40
N=C(N)c1ccc(CNC(=O)Cn2c(-c3ccccc3)c(Cl)nc(NCCc3cccc(C(F)(F)F)c3)c2=O)cc1 [1512-41] | 4 | – | 4.52 | –
N=C(N)c1ccc(CNC(=O)Cn2c(-c3ccccc3)c(Cl)nc(NCc3ccccc3OC(F)(F)F)c2=O)cc1 [1512-42] | 1 | 4.60 | – | –
N=C(N)c1ccc(CNC(=O)Cn2c(-c3ccccc3)c(Cl)nc(NCc3c(F)cccc3F)c2=O)cc1 [1512-43] | 9 | 4.96 | – | –
N=C(N)c1ccc(CNC(=O)Cn2c(-c3ccccc3)c(Cl)nc(NCc3c(F)cccc3C(F)(F)F)c2=O)cc1 [1512-44] | 6 | – | – | 43
Cc1cc(Cl)cc(Cl)c1CNc1nc(Cl)c(-c2ccccc2)n(CC(=O)NCc2ccc(C(=N)N)cc2)c1=O [1512-45] | 11 | – | – | 27
CN1CCCC1CCNc1nc(Cl)c(-c2ccccc2)n(CC(=O)NCc2ccc(C(=N)N)cc2)c1=O (stereo not drawn) [1512-46] | 10 | 4.93 | – | –
N=C(N)c1ccc(CNC(=O)Cn2c(-c3ccccc3)c(Cl)nc(NCCc3ccccn3)c2=O)cc1 [1512-47] | 13 | 5.46 | – | –
N=C(N)c1ccc(CNC(=O)Cn2c(-c3ccsc3)c(Cl)nc(NCc3ccccc3)c2=O)cc1 [1517-01] | 0 | 5.92 | – | –
C[C@@H](C(=O)NCc1ccc(C(=N)N)cc1)n1c(-c2ccccc2)c(Cl)nc(NCc2ccccc2)c1=O [1517-03] | 0 | 5.05 | – | –
CSCC(C(=O)NCc1ccc(C(=N)N)cc1)n1c(-c2ccccc2)c(Cl)nc(NCc2ccccc2)c1=O (stereo not drawn) [1517-04] | 0 | 5.24 | – | –
C[C@H](C(=O)NCc1ccc(C(=N)N)cc1)n1c(-c2ccccc2)c(Cl)nc(NCc2ccccc2)c1=O [1517-05] | 0 | 5.34 | – | –
N=C(N)c1ccc(CNC(=O)Cn2c(-c3c(Cl)cccc3Cl)c(Cl)nc(NCc3ccccc3)c2=O)cc1 [1517-06] | 0 | 5.60 | – | –
N=C(N)c1ccc(CNC(=O)Cn2c(-c3ccsc3)c(Cl)nc(NC3CCC3)c2=O)cc1 [1517-07] | 0 | 6.40 | – | –
N=C(N)c1ccc(CNC(=O)C(Cc2ccccc2)n2c(-c3ccccc3)c(Cl)nc(NC3CCC3)c2=O)cc1 (stereo not drawn) [1517-08] | 0 | – | – | 43
C[C@@H](C(=O)NCc1ccc(C(=N)N)cc1)n1c(-c2ccccc2)c(Cl)nc(NC2CCC2)c1=O [1517-09] | 0 | 5.59 | – | –
CSCC(C(=O)NCc1ccc(C(=N)N)cc1)n1c(-c2ccccc2)c(Cl)nc(NC2CCC2)c1=O (stereo not drawn) [1517-10] | 0 | 5.70 | – | –
C[C@H](C(=O)NCc1ccc(C(=N)N)cc1)n1c(-c2ccccc2)c(Cl)nc(NC2CCC2)c1=O [1517-11] | 0 | 5.52 | – | –
N=C(N)c1ccc(CNC(=O)Cn2c(-c3c(Cl)cccc3Cl)c(Cl)nc(NC3CCC3)c2=O)cc1 [1517-12] | 0 | 6.10 | – | –
N=C(N)c1ccc(CNC(=O)Cn2c(-c3ccsc3)c(Cl)nc(NCCc3ccccc3)c2=O)cc1 [1517-13] | 0 | 6.22 | – | –
N=C(N)c1ccc(CNC(=O)C(Cc2ccccc2)n2c(-c3ccccc3)c(Cl)nc(NCCc3ccccc3)c2=O)cc1 (stereo not drawn) [1517-14] | 0 | – | – | 30
C[C@@H](C(=O)NCc1ccc(C(=N)N)cc1)n1c(-c2ccccc2)c(Cl)nc(NCCc2ccccc2)c1=O [1517-15] | 0 | 5.51 | – | –
CSCC(C(=O)NCc1ccc(C(=N)N)cc1)n1c(-c2ccccc2)c(Cl)nc(NCCc2ccccc2)c1=O (stereo not drawn) [1517-16] | 0 | 5.47 | – | –
C[C@H](C(=O)NCc1ccc(C(=N)N)cc1)n1c(-c2ccccc2)c(Cl)nc(NCCc2ccccc2)c1=O [1517-17] | 0 | 5.74 | – | –
N=C(N)c1ccc(CNC(=O)Cn2c(-c3c(Cl)cccc3Cl)c(Cl)nc(NCCc3ccccc3)c2=O)cc1 [1517-18] | 0 | 5.89 | – | –
